# According to patent publication US20070043024A1, “Azacyclic compounds as inhibitors of sensory neurone specific channels” (priority 2003, published 2007):
# Biological target: T1, human Nav1.8 (hNav1.8) ion channel (Homo sapiens, UniProt Q9Y5Y9)
# T1 construct: expressed in transfected cells
# Experiment: Inhibition of human Nav1.8 stably expressed in SH-SY-5Y cells (membrane potential dye fluorescence assay)
# Assay type: cell-based
# Conditions: Table 2 (compound numbers of the list in the description); SH-SY-5Y hNav1.8 cells, inhibition of membrane depolarisation, FLIPR membrane potential dye, 250 nM TTX, test concentration range 100 μM-0.05 μM; read-out: IC50
# Experimental: Inhibition of Human Nav1.8 Stably Expressed in SH-SY-5Y Cells
# A SH-SY-5Y neuroblastoma cell line stably expressing the human […] (hNav1.8) ion channel was constructed. This cell line has been used to develop a medium to high throughput assay for determining the ability of test compounds to inhibit membrane depolarisation mediated via the hNav1.8 channel.
# SH-SY-5Y hNav1.8 are grown in adherent monolayer culture using 50:50 Ham's F-12/EMEM tissue culture medium supplemented with 15% (v/v) foetal bovine serum; 2 mM L-glutamine, 1% NEAA and 600 μg·ml^−1 Geneticin sulphate. Cells are removed from the tissue culture flask using trypsin/EDTA and re-plated into black walled, clear bottom 96-well assay plates at 50,000 cells·well^−1 24 hours prior to assay.
# On the day of assay the cell assay plates are washed to remove cell culture medium using a sodium free assay buffer (145 mM tetramethyl ammonium chloride; 2 mM calcium chloride; 0.8 mM magnesium chloride hexahydrate; 10 mM HEPES; 10 mM glucose; 5 mM potassium chloride, pH 7.4). Fluorescent membrane potential dye solution (FLIPR™ membrane potential dye, Molecular Devices Corporation), containing 10 μM of a pyrethroid to prevent channel inactivation and 250 nM tetrodotoxin (TTX) to reduce interference from TTX-sensitive sodium channels present in the cell line. Test compound, initially dissolved in dimethyl sulfoxide but further diluted in sodium free buffer, is added to achieve the final test concentration range of 100 μM-0.05 μM.
# Cell plates are incubated for 30 minutes at room temperature to allow equilibration of dye and test compound. Plates are then transferred to a fluorescence plate reader for fluorescence measurement using an excitation wavelength of 530 nm whilst measuring fluorescence emission at 565 nm. Baseline fluorescence levels are first determined before the addition of a sodium containing buffer (220 mM sodium chloride; 2 mM calcium chloride; 0.8 mM magnesium chloride hexahydrate; […]; 10 mM glucose; 5 mM potassium chloride. pH 7.4) to cause membrane depolarisation in those cells where channel block has not been effected (final sodium concentration=72.5 mM). Membrane depolarisation is registered by an increase in fluorescence emission at 565 nm.
# The change in fluorescence seen in each test well upon the addition of sodium containing buffer is calculated relative to the baseline fluorescence for that well. This figure is then used for calculating the IC50 for each test compound.
# T1 sequence (Q9Y5Y9 whole entry): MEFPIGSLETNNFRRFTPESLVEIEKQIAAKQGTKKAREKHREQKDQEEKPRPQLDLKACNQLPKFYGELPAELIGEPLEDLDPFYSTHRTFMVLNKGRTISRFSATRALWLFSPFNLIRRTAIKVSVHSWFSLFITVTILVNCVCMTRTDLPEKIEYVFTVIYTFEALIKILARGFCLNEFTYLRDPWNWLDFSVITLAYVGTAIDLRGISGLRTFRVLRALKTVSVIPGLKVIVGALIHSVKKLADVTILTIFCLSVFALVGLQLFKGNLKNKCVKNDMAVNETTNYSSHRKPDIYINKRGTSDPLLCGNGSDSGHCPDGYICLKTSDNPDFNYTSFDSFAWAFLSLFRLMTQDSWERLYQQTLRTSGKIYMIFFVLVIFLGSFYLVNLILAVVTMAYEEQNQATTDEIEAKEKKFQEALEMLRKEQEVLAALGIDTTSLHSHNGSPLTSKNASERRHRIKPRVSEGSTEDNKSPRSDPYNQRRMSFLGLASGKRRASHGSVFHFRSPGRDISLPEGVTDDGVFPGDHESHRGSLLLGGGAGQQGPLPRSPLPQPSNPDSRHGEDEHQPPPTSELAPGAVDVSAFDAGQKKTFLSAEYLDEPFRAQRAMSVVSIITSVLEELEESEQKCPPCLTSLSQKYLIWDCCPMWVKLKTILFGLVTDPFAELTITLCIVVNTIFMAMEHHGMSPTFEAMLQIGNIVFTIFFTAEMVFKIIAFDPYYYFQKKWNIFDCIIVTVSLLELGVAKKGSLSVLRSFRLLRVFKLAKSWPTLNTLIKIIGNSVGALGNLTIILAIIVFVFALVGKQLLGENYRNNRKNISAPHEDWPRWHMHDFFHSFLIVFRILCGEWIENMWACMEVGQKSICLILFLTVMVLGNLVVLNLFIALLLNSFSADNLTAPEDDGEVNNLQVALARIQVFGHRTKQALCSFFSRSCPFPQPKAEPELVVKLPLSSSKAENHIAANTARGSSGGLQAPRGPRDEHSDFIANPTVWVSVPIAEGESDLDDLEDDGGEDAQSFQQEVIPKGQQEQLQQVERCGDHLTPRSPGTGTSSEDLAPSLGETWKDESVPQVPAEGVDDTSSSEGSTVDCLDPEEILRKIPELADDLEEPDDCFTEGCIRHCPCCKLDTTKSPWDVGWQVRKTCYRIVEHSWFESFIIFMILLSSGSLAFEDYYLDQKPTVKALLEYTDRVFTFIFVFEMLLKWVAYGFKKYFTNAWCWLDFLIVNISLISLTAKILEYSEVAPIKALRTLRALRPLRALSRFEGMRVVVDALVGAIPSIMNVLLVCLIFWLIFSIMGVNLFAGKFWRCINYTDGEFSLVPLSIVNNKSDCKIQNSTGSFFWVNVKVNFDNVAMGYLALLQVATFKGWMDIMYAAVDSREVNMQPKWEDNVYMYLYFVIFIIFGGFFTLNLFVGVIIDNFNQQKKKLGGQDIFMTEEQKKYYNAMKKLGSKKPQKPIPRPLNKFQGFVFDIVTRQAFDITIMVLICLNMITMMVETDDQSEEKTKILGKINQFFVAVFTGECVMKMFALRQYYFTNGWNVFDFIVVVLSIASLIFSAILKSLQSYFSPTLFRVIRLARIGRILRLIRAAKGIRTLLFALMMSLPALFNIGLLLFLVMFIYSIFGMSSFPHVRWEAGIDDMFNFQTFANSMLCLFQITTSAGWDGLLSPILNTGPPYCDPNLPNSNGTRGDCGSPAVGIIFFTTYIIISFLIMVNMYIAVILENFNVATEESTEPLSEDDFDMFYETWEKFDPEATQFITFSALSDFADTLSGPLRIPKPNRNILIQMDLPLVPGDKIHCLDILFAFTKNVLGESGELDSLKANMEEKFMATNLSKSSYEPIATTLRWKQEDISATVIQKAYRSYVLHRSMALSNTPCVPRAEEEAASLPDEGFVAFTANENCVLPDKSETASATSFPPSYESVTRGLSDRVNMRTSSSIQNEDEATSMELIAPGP
row,SMILES,IC50
1,"CC(=O)Nc1ccc(C(CCNC(=O)CN2CCc3ccccc3C2)c2ccccc2)cc1NC(C)=O (stereo not shown) [Compound 116, N-[3-(3,4-Bis-acetylamino-phenyl)-3-phenyl-propyl]-2-(3,4-dihydro-1H-isoquinolin-2-yl)-acetamide]",22200 nM
2,"CS(=O)(=O)Nc1cccc2c1CN(CC(=O)NCCCC(c1ccccc1)c1ccccc1)CC2 [Compound 117, N-(4,4-Diphenyl-butyl)-2-(8-methanesulfonylamino-3,4-dihydro-1H-isoquinolin-2-yl)-acetamide]",1360 nM
3,"O=C(CN1Cc2ccccc2C1)NC(c1ccc(F)cc1)c1ccc(F)cc1 [Compound 118, N-[Bis-(4-fluoro-phenyl)-methyl]-2-(1,3-dihydro-isoindol-2-yl)-acetamide]",10200 nM
4,"O=C(CN1CCc2ccccc2C1)NC(c1ccc(F)cc1)c1ccc(F)cc1 [Compound 119, N-[Bis-(4-fluoro-phenyl)-methyl]-2-(3,4-dihydro-1H-isoquinolin-2-yl)-acetamide]",1910 nM
5,"COc1cccc2c1CN(CC(=O)NC(c1ccc(F)cc1)c1ccc(F)cc1)CC2 [Compound 120, N-[Bis-(4-fluoro-phenyl)-methyl]-2-(8-methoxy-3,4-dihydro-1H-isoquinolin-2-yl)-acetamide]",3340 nM
6,"COc1cc2c(cc1OC)CN(CC(=O)NC(c1ccc(F)cc1)c1ccc(F)cc1)CC2 [Compound 121, N-[Bis-(4-fluoro-phenyl)-methyl]-2-(6,7-dimethoxy-3,4-dihydro-1H-isoquinolin-2-yl)-acetamide]",3450 nM
7,"Nc1cccc2c1CCN(CCC(=O)NCCC(c1ccccc1)c1ccccc1)C2 [Compound 122, 3-(5-Amino-3,4-dihydro-1H-isoquinolin-2-yl)-N-(3,3-diphenyl-propyl)-propionamide]",960 nM
8,"Nc1cccc2c1CCN(CC(=O)NCC(c1ccccc1)c1ccccc1)C2 [Compound 123, 2-(5-Amino-3,4-dihydro-1H-isoquinolin-2-yl)-N-(2,2-diphenyl-ethyl)-acetamide]",2890 nM
9,"COc1cc2c(cc1OC)CN(CC(=O)NCCCC(c1ccccc1)c1ccccc1)CC2 [Compound 124, 2-(Dimethoxy-3,4-dihydro-1H-isoquinolin-2-yl)-N-(4,4-diphenyl-butyl)-acetamide]",590 nM
10,"COc1cc2c(cc1OC)CN(CCC(=O)NCCC(c1ccccc1)c1ccccc1)CC2 [Compound 125, 3-(6,7-Dimethoxy-3,4-dihydro-1H-isoquinolin-2-yl)-N-(3,3-diphenyl-propyl)-propionamide]",380 nM
11,"COc1cc2c(cc1OC)CN(CC(=O)NCC(c1ccccc1)c1ccccc1)CC2 [Compound 126, 2-(6,7-Dimethoxy-3,4-dihydro-1H-isoquinolin-2-yl)-N-(2,2-diphenyl-ethyl)-acetamide]",1930 nM
12,"Nc1cccc2c1CN(CCC(=O)NCCC(c1ccccc1)c1ccccc1)CC2 [Compound 127, 3-(8-Amino-3,4-dihydro-1H-isoquinolin-2-yl)-N-(3,3-diphenyl-propyl)-propionamide]",650 nM
13,"COc1cccc2c1CN(CC(=O)NCCCn1c3ccccc3c3ccccc31)CC2 [Compound 128, N-(3-Carbazol-9-yl-propyl)-2-(8-methoxy-3,4-dihydro-1H-isoquinolin-2-yl)-acetamide]",3510 nM
14,"O=C(CN1CCc2cccc(O)c2C1)NCCCn1c2ccccc2c2ccccc21 [Compound 129, N-(3-Carbazol-9-yl-propyl)-2-(8-hydroxy-3,4-dihydro-1H-isoquinolin-2-yl)-acetamide]",2480 nM
15,"Cc1cc2cc(Cl)ccc2n1CCCNC(=O)CN1CCc2cccc(O)c2C1 [Compound 131, N-[3-(5-Chloro-2-methyl-indol-1-yl)-propyl]-2-(8-hydroxy-3,4-dihydro-1H-isoquinolin-2-yl)-acetamide]",3610 nM
16,"COc1cccc2c1CN(CCNC(=S)NC(c1ccccc1)c1ccccc1)CC2 [Compound 133, 1-Benzhydryl-3-[2-(8-methoxy-3,4-dihydro-1H-isoquinolin-2-yl)-ethyl]-thiourea]",600 nM
17,"COc1cc2c(cc1OC)CN(CCNC(=S)NC(c1ccccc1)c1ccccc1)CC2 [Compound 134, 1-Benzhydryl-3-[2-(6,7-dimethoxy-3,4-dihydro-1H-isoquinolin-2-yl)-ethyl]-thiourea]",770 nM

row,SMILES,IC50
1,"COc1cccc2c1CN(CCNC(=O)NC(c1ccccc1)c1ccccc1)CC2 [Compound 135, 1-Benzhydryl-3-[2-(8-methoxy-3,4-dihydro-1H-isoquinolin-2-yl)-ethyl]-urea]",380 nM
2,"COc1cc2c(cc1OC)CN(CCNC(=O)NC(c1ccccc1)c1ccccc1)CC2 [Compound 136, 1-Benzhydryl-3-[2-(6,7-dimethoxy-3,4-dihydro-1H-isoquinolin-2-yl)-ethyl]-urea]",2110 nM
3,"COc1cccc2c1CN(CCNC(=S)NCC(c1ccccc1)c1ccccc1)CC2 [Compound 137, 1-(2,2-Diphenyl-ethyl)-3-[2-(8-methoxy-3,4-dihydro-1H-isoquinolin-2-yl)-ethyl]-thiourea]",440 nM
4,"COc1cc2c(cc1OC)CN(CCNC(=S)NCC(c1ccccc1)c1ccccc1)CC2 [Compound 138, 1-[2-(6,7-Dimethoxy-3,4-dihydro-1H-isoquinolin-2-yl)-ethyl]-3-(2,2-diphenyl-ethyl)-thiourea]",520 nM
5,"O=C(CN1CCc2cccc(O)c2C1)N1c2ccccc2Sc2ccccc21 [Compound 139, 2-(8-Hydroxy-3,4-dihydro-1H-isoquinolin-2-yl)-1-phenothiazin-10-yl-ethanone]",1250 nM
6,"COc1cccc2c1CN(CC(=O)N1c3ccccc3Sc3ccccc31)CC2 [Compound 140, 2-(8-Methoxy-3,4-dihydro-1H-isoquinolin-2-yl)-1-phenothiazin-10-yl-ethanone]",2330 nM
7,"O=C(CN1CCc2cccc(O)c2C1)N1c2ccccc2Sc2ccc(Cl)cc21 [Compound 141, 1-(2-Chloro-phenothiazin-10-yl)-2-(8-hydroxy-3,4-dihydro-1H-isoquinolin-2-yl)-ethanone]",1850 nM
8,"COc1cccc2c1CN(CC(=O)N1c3ccccc3Sc3ccc(Cl)cc31)CC2 [Compound 142, 1-(2-Chloro-phenothiazin-10-yl)-2-(8-methoxy-3,4-dihydro-1H-isoquinolin-2-yl)-ethanone]",2090 nM
9,"COc1cccc2c1CN(CC(=O)N1c3ccccc3[S+]([O-])c3ccccc31)CC2 [Compound 143, 2-(8-Methoxy-3,4-dihydro-1H-isoquinolin-2-yl)-1-(5-oxo-5H-5lambda*4*-phenothiazin-10-yl)-ethanone]",9590 nM
10,"O=C(CN1CCc2cccc(O)c2C1)N1c2ccccc2Oc2ccccc21 [Compound 144, 2-(8-Hydroxy-3,4-dihydro-1H-isoquinolin-2-yl)-1-phenoxazin-10-yl-ethanone]",500 nM
11,"O=C(CN1CCc2cccc(O)c2C1)N1c2ccccc2Sc2ccc(C(F)(F)F)cc21 [Compound 145, 2-(8-Hydroxy-3,4-dihydro-1H-isoquinolin-2-yl)-1-(2-trifluoromethyl-phenothiazin-10-yl)-ethanone]",2630 nM
12,"CC(=O)c1ccc2c(c1)N(C(=O)CN1CCc3cccc(O)c3C1)c1ccccc1S2 [Compound 147, 1-(2-Acetyl-phenothiazin-10-yl)-2-(8-hydroxy-3,4-dihydro-1H-isoquinolin-2-yl)-ethanone]",2040 nM
13,"COc1cccc2c1CN(CC(=O)N1c3ccccc3Sc3ccc(C(C)=O)cc31)CC2 [Compound 148, 1-(2-Acetyl-phenothiazin-10-yl)-2-(8-methoxy-3,4-dihydro-1H-isoquinolin-2-yl)-ethanone]",5170 nM
14,"O=C(CN1CCc2cccc(O)c2C1)N(c1ccccc1)c1ccccc1 [Compound 149, 2-(8-Hydroxy-3,4-dihydro-1H-isoquinolin-2-yl)-N,N-diphenyl-acetamide]",9090 nM
15,"COc1cccc2c1CN(CC(=O)N(c1ccccc1)c1ccccc1)CC2 [Compound 150, 2-(8-Methoxy-3,4-dihydro-1H-isoquinolin-2-yl)-N,N-diphenyl-acetamide]",1790 nM
16,"COc1cc2c(cc1OC)CN(CC(=O)N1c3ccccc3S(=O)(=O)c3ccccc31)CC2 [Compound 151, 2-(6,7-Dimethoxy-3,4-dihydro-1H-isoquinolin-2-yl)-1-(5,5-dioxo-5H-5lambda*6*-phenothiazin-10-yl)-ethanone]",7440 nM
17,"COc1cc2c(cc1OC)CN(CC(=O)N1c3ccccc3Sc3ccccc31)CC2 [Compound 152, 2-(6,7-Dimethoxy-3,4-dihydro-1H-isoquinolin-2-yl)-1-phenothiazin-10-yl-ethanone]",3030 nM
